Structures are written as SMILES.

The nature of this assay: Concentration required for 50% Inhibition of activity against Yersinia Protein-tyrosine phosphatase.
In the case of `O=C(O)C(=O)c1ccc(OCc2ccc(COc3ccc(C(=O)C(=O)O)cc3)cc2)cc1` [{4-[4-(4-Oxalyl-phenoxymethyl)-benzyloxy]-phenyl}-oxo-acetic acid], the 50% inhibitory concentration (IC50) came to 0.7 µM.

For `O=C(O)C(=O)c1ccc(OCc2ccccc2COc2ccc(C(=O)C(=O)O)cc2)cc1` [{4-[2-(4-Oxalyl-phenoxymethyl)-benzyloxy]-phenyl}-oxo-acetic acid], it took 8.5 µM to reach half-maximal inhibition (IC50).

`O=C(O)C(=O)c1ccc(O)cc1` [(4-Hydroxy-phenyl)-oxo-acetic acid] yielded an IC50 of 200 µM.

With `O=C(O)C(=O)c1ccc(OCc2cccc(COc3ccc(C(=O)C(=O)O)cc3)c2)cc1` [{4-[3-(4-Oxalyl-phenoxymethyl)-benzyloxy]-phenyl}-oxo-acetic acid], 4.1 µM corresponded to half-maximal inhibition (IC50).

Compound `O=C(O)C(=O)c1ccc(OCc2cc(COc3ccc(C(=O)C(=O)O)cc3)cc(COc3ccc(C(=O)C(=O)O)cc3)c2)cc1` [{4-[3,5-Bis-(4-oxalyl-phenoxymethyl)-benzyloxy]-phenyl}-oxo-acetic acid] gave a concentration for half-maximal inhibition (IC50) of 1.7 µM.

One may read the IC50 as the concentration at which inhibition is half-maximal. Low values mean higher potency, high ones lower potency.

The values above are taken from BindingDB's records for doi:10.1021/jm020093q (Brown University, 2002).
